Assay results reported in paper PMC6595003, “Insights into real-time chemical processes in a calcium sensor protein-directed dynamic library” (Nature Communications, 2019).

Target: T1, dNCS-1 (Drosophila melanogaster, UniProt Q9VWX8)
T1 construct: made in house; host or cells: E. coli
T1 sequence (Q9VWX8 1-187): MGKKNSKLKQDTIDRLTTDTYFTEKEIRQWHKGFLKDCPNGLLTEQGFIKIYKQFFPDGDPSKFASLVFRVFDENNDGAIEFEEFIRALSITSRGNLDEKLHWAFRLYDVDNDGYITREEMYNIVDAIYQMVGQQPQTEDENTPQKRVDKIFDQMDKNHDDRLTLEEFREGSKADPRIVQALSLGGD
Experiment: STD-NMR experiments with dNCS-1
Type: binding
Conditions: compound 1 mM, 10 μM dNCS-1, 281 K
Protocol: Fig. 5 ^1H-STD-NMR spectra of 3a–3e in the presence of dNCS-1. STD (blue) and off-resonance (red) NMR spectra acquired for compounds 3a–3e (1 mM) in the presence of 10 μM dNCS-1 (600 MHz, 281 K). Relative STD intensities are coded according to the color scale shown. The 100% STD signal corresponds to the resonance showing the highest intensity in each case and all other STD signals are calculated accordingly
The experiments were performed using a deuterated Tris (pH 7.9) buffered solution with an aliquot of DMSO-d6. A sample containing 10 μM of dNCS-1 and 1 mM of DCL species (molar ratio 1:100) was prepared. The STD experiments were acquired at 281 K on a Bruker Avance 600 MHz spectrometer equipped with a cryoprobe. […]. The same conditions were used for the acquisition of the STD-NMR spectra of the individual products with dNCS-1.

recognition by dNCS-1 in STD-NMR: largest STD intensities
Structure (SMILES): O=C(Cc1c[nH]c2ccccc12)NN=Cc1ccc([N+](=O)[O-])c(O)c1 (mixture of isomers) [3b]
